According to patent US6518243B1, “Desleucyl glycopeptide antibiotics and methods of making same” (Trustees of Princeton University, priority 1999, dated 2003):

Tested on: E. faecalis (CL 4877)
Test: Zone of inhibition screen, 96 well agar array format
Format: cell-based
Parameters: scale not given here
Conditions: zone of inhibition relative to 1 mg/ml stock solution of p-chlorobiphenylvancomycin
Method in brief: (§1)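 Each compound was tested for antibacterial activity against a shared bacterial panel, with screening carried out on agar in a 96-well array.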

SMILES | zone score, E. faecalis CL 4877
CC1OC(OC2C(Oc3c4cc5cc3Oc3ccc(cc3Cl)C(O)C3NC(=O)C(NC(=O)C5NC(=O)C(CC(N)=O)NC(=O)C(NC(=O)CN(CCO)CCO)C(O)c5ccc(c(Cl)c5)O4)c4ccc(O)c(c4)-c4c(O)cc(O)cc4C(C(=O)O)NC3=O)OC(CO)C(O)C2O)CC(C)(NCc2ccc(-c3ccc(Cl)cc3)cc2)C1O (stereo not shown) [Compound 130] | 2

Tested on: S. aureus (ATCC 29213)
Test: as above
Format: cell-based
Parameters: scale not given here
Conditions: zone of inhibition relative to 1 mg/ml p-chlorobiphenylvancomycin
Method in brief: as §1

SMILES | zone score, S. aureus ATCC 29213
CC(C)=C(N)C(=O)NC1C(=O)NC(CC(N)=O)C(=O)NC2C(=O)NC3C(=O)NC(C(=O)NC(C(=O)O)c4cc(O)cc(O)c4-c4cc3ccc4O)C(O)c3ccc(c(Cl)c3)Oc3cc2cc(c3OC2OC(CO)C(O)C(O)C2OC2CC(C)(NCc3ccc(-c4ccc(Cl)cc4)cc3)C(O)C(C)O2)Oc2ccc(cc2Cl)C1O (stereo not shown) [Compound 216] | 2
COC(=O)C1=C(C)NC(=O)C1CC(=O)NC1C(=O)NC(CC(N)=O)C(=O)NC2C(=O)NC3C(=O)NC(C(=O)NC(C(=O)O)c4cc(O)cc(O)c4-c4cc3ccc4O)C(O)c3ccc(c(Cl)c3)Oc3cc2cc(c3OC2OC(CO)C(O)C(O)C2OC2CC(C)(NCc3ccc(-c4ccc(Cl)cc4)cc3)C(O)C(C)O2)Oc2ccc(cc2Cl)C1O (mixture of isomers) [Compound 299] | 2

Same assay, conditions: zone of inhibition relative to 1 mg/ml stock solution of p-chlorobiphenylvancomycin

SMILES | zone score, S. aureus ATCC 29213
CC1OC(OC2C(Oc3c4cc5cc3Oc3ccc(cc3Cl)C(O)C3NC(=O)C(NC(=O)C5NC(=O)C(CC(N)=O)NC(=O)C(NC(=O)CN(CCO)CCO)C(O)c5ccc(c(Cl)c5)O4)c4ccc(O)c(c4)-c4c(O)cc(O)cc4C(C(=O)O)NC3=O)OC(CO)C(O)C2O)CC(C)(NCc2ccc(-c3ccc(Cl)cc3)cc2)C1O (stereo not shown) [Compound 130] | 2
CC1OC(OC2C(Oc3c4cc5cc3Oc3ccc(cc3Cl)C(O)C3NC(=O)C(NC(=O)C5NC(=O)C(CC(N)=O)NC(=O)C(NC(=O)CCC(=O)NN(C)C)C(O)c5ccc(c(Cl)c5)O4)c4ccc(O)c(c4)-c4c(O)cc(O)cc4C(C(=O)O)NC3=O)OC(CO)C(O)C2O)CC(C)(NCc2ccc(-c3ccc(Cl)cc3)cc2)C1O (stereo not shown) [Compound 203] | 2
CC(=O)NC(C)C(=O)NC1C(=O)NC(CC(N)=O)C(=O)NC2C(=O)NC3C(=O)NC(C(=O)NC(C(=O)O)c4cc(O)cc(O)c4-c4cc3ccc4O)C(O)c3ccc(c(Cl)c3)Oc3cc2cc(c3OC2OC(CO)C(O)C(O)C2OC2CC(C)(NCc3ccc(-c4ccc(Cl)cc4)cc3)C(O)C(C)O2)Oc2ccc(cc2Cl)C1O (stereo not shown) [Compound 112] | 2
CSCCC(NC=O)C(=O)NC1C(=O)NC(CC(N)=O)C(=O)NC2C(=O)NC3C(=O)NC(C(=O)NC(C(=O)O)c4cc(O)cc(O)c4-c4cc3ccc4O)C(O)c3ccc(c(Cl)c3)Oc3cc2cc(c3OC2OC(CO)C(O)C(O)C2OC2CC(C)(NCc3ccc(-c4ccc(Cl)cc4)cc3)C(O)C(C)O2)Oc2ccc(cc2Cl)C1O (stereo not shown) [Compound 196] | 2
CC1OC(OC2C(Oc3c4cc5cc3Oc3ccc(cc3Cl)C(O)C(NC(=O)C3OC(O)C(O)C3O)C(=O)NC(CC(N)=O)C(=O)NC5C(=O)NC3C(=O)NC(C(=O)NC(C(=O)O)c5cc(O)cc(O)c5-c5cc3ccc5O)C(O)c3ccc(c(Cl)c3)O4)OC(CO)C(O)C2O)CC(C)(NCc2ccc(-c3ccc(Cl)cc3)cc2)C1O (mixture of isomers) [Compound 128] | 2
C[C@H]1O[C@H](O[C@H]2[C@H](Oc3c4cc5cc3Oc3ccc(cc3Cl)[C@@H](O)[C@@H](NC(=O)[C@@H](N)Cc3ccc(OC(C)(C)C)cc3)C(=O)N[C@@H](CC(N)=O)C(=O)N[C@H]5C(=O)N[C@H]3C(=O)N[C@H](C(=O)N[C@@H](C(=O)O)c5cc(O)cc(O)c5-c5cc3ccc5O)[C@H](O)c3ccc(c(Cl)c3)O4)O[C@H](CO)[C@@H](O)[C@@H]2O)C[C@@](C)(NCc2ccc(-c3ccc(Cl)cc3)cc2)[C@H]1O [Compound 19] | 2
CC1OC(OC2C(Oc3c4cc5cc3Oc3ccc(cc3Cl)C(O)C(NC(=O)C(C)(C)NC(N)=O)C(=O)NC(CC(N)=O)C(=O)NC5C(=O)NC3C(=O)NC(C(=O)NC(C(=O)O)c5cc(O)cc(O)c5-c5cc3ccc5O)C(O)c3ccc(c(Cl)c3)O4)OC(CO)C(O)C2O)CC(C)(NCc2ccc(-c3ccc(Cl)cc3)cc2)C1O (stereo not shown) [Compound 190] | 2
